What was measured:
Assay type in all cases: cell-based
[1] = test system: HT29 colon cancer line; test: miRNA library screen for enhancement of 17-AAG apoptotic activity (Apo-ONE caspase); settings: HT29, miRNA transfected 48 hours, then 17-AAG 48 hours, both 1:800 and 1:3200 dilutions of 17-AAG
Procedure: In order to observe an enhancement of activity in 17-AAG, a miRNA library of 470 Pre-miRNA precursors have been transfected (Ambion, siPORT NeoFx transfection agent) in to the HT29 colon cancer line and followed by 17-AAG treatment. Synthetic ds-miRNAs from the miRNA library were transfected into HT29 cells and incubated for 48 hours at 37° C. Various concentrations of 17-AAG were added to miRNA transfected HT29 cells and incubated for another 48 hours. 100 uL of media was aspirated from each well. Apo-One caspase reagent was prepared by diluting the substrate in buffer in a 1:100 concentration. 100 uL of the reagent was added to each well. Plates were incubated at room temperature for 6 hours. The apoptotic activity was measured by the Fluoroskan plate reader. […] Molecules that synergized at both 1:800 and 1:3200 dilutions of 17-AAG were miR-145, miR-454-3p, miR519a, miR-520c, and miR-520d (SEQ ID NOS:1-5), (FIG. 5, dark background, respectively).

[2] = test system: HT29 cells; test: miRNA concentration dependency of 17-AAG synergy; settings: 17-AAG 3.125 ug/ml, miRNA 60, 30, 15, 7.5 nM
Procedure: To confirm the activity shown in Example 6, the experiment was repeated with constant amount of 17-AAG (3.125 ug/ml) and increasing amount of miRNAs (60, 30, 15, 7.5 nM) used for transfection. […] There were two distinct classes of miRNAs according to activity (one class with high activity: miR454 (SEQ ID NO:2), miR-520c (SEQ ID NO:4) and miR-520d (SEQ ID NO:5); one class with low activity: miR-145 (SEQ ID NO:1) and miR-519a (SEQ ID NO:3)).

[3] = test system: HT29 cells; test: miRNA enhancement of oxaliplatin or paclitaxel apoptosis (Apo-ONE Caspase-3/7 Assay); settings: HT29, miRNA 30 nM 48 hours; for Level of apoptosis in oxaliplatin treated cells expressing exogenous miRNA: then 15.6 μg/ml oxaliplatin 48 hours; for Level of apoptosis in paclitaxel treated cells expressing exogenous miRNA: then 7.8 μg/ml paclitaxel 48 hours
Procedure: A transfection medium was made up by diluting siPORT NeoFx (0.3 μl/well) in OPTI-MEM (16.7 ul/well) in the wells of a microtiter plate and this medium was incubated for 10 minutes at room temperature. A pre-miRNA library was diluted to 1 μM and […] of miRNA was added to each well (30 nM). This mixture was incubated at room temperature for another 10 minutes. HT29 cells were then added at 30,000 cells/well and the plates were incubated 48 hours 37° C.
For treatment with candidate therapeutic agents, the media was aspirated from each well and 200 μl/well of 15.6 μg/ml oxaliplatin, 7.8 μg/ml paclitaxel or negative control solution was added. The plates were incubated for 48 hours 37° C. The Apo-ONE® Homogeneous Caspase-3/7 Assay (Promega, Madison, Wis., USA) was performed on the treated cells. The reactions were performed in duplicate.

[4] = test system: HT29 cells; test: Apoptotic activity of 17-AAG combined with anticancer agents (Apo-ONE kit); settings: three days after drug treatment
Procedure: A panel of anticancer chemotherapeutical agents was tested for the enhancement of apoptotic activity with 17-AAG (using the same apoptotic assay system in Example 1), FIG. 4. HT29 cells were treated with various concentration of 17-AGG in the presence or absence of anticancer agents including known HSP70 promoter inducers. Three days after the drug treatment, the apoptotic activity was measured by the Apo-ONE kit (see above). When combined with the anticancer agents, including HSP70 inducers (such as Cisplatin, Etoposide, Doxorubicin, Velcade, Dimethylenastron). […] Some inhibition was also observed for other inducers of HSP70.

[5] = test system: Her2; test: Her2 suppression assay (anti-Her2 immunostaining, absorbance at 405 nm); settings: BT474 cells, 24-hours treatment
Procedure: Ten thousand BT474 cells per well were seeded into a microtiter plate and grown for 48 hours. After this preincubation, the BT474 cells treated with various concentrations of 17-AAG and its analogs for 24-hours. At the end of this incubation the media was removed from each well, each well was washed twice with ice-cold Tris buffer saline (containing 0.1% Tween 20) and the cells were fixed with Methanol (ice-cold) at […] for 10 minutes. The fixed BT474 cells were immunostained with anti-Her2 antibody. The presence of Her2 protein was determined by measurement of the absorbance at 405 nm in the plate reader.

[6] = test system: Her2; test: Confocal imaging of Her2 internalization and degradation; settings: BT474 cells, concentration of IC50, 24 hours, confocal image
Procedure: 17-AAG treated BT474 cells were examined by the confocal images system. BT474 cells were seeded on the slide and treated at the concentration of IC50 for 24 hours. 17AAG-treated and control BT474 cells were fixed with Methanol, stained with Her2 antibody and analyzed by the confocal image.

[7] = test system: colon cancer line HT29; test: Apo-ONE Homogeneous Caspase-3/7 assay of 17-AAG apoptotic activity; settings: HT29 cells, 72 hours at 37° C., Caspase-3/7 activity
From the text: The Apo-ONE® Homogeneous Caspase-3/7 Assay (Promega, Madison, Wis.) uses a proprietary lysis/activity buffer, in conjunction with the (Z-DEVD)2-Rhodamine 110 substrate, enables a simple “add-mix-read” format for the detection of caspase-3 and -7 in adherent, suspension, and primary culture cells, or in purified caspase preparations. The assay uses a rhodamine 110-based substrate allows for exquisite sensitivity previously unobtainable with conventional colorimetric or fluorometric assays.
Specifically, 100 μl of Apo-ONE® Caspase-3/7 Reagent was added to each well of a white or black 96-well plate containing 100 μl of blank, control or cells in culture. The plate was covered with a plate sealer for incubating for extended periods (>4 hours). In order to perform this assay in a 384-well plate, a 1:1 volume ratio of Apo-ONE® Caspase-3/7 Reagent to sample was used. The contents of wells were mixed using a plate shaker at 300-500 rpm from 30 seconds and incubated at room temperature for 6 hours. The fluorescence of each well was determined at 485/538 nm (a measure of apoptosis, with the higher ratio indicating more apoptosis).
The apoptotic activity of 17-AAG (17-(Allylamino)-17-demethoxygeldanamycin) was determined in the colon cancer line HT29 using an assay for Caspase-3/7 activity (Apo-ONE kit, Promega). 17-AAG-treated HT29 cells were compared with DMSO-treated control (FIG. 1). […]

For “miR-520d: miRNA AAAGUGCUUCUCUUUGGUGGGUU (SEQ ID NO:5) (listed as RNA, chemistry not given here; listed as Homo sapiens)”, the “Synergy with 17-AAG in apoptotic reading” value [1] was “synergized”, the “Class of activity in synergy with 17-AAG” value [2] was “high activity” and the “Level of apoptosis in oxaliplatin treated cells expressing exogenous miRNA” value [3] was “highest level of apoptosis”.

In the case of “miR519a: miRNA AAAGUGCAUCCUUUUAGAGUGUUAC (SEQ ID NO:3) (listed as RNA, chemistry not given here; listed as Homo sapiens)”, the “Synergy with 17-AAG in apoptotic reading” value [1] is reported as “synergized” and the “Class of activity in synergy with 17-AAG” value [2] is reported as “low activity”.

For “mir 572: miRNA GUCCGCUCGGCGGUGGCCCA (SEQ ID NO:8) (listed as RNA, chemistry not given here; listed as Homo sapiens)”, the “Level of apoptosis in paclitaxel treated cells expressing exogenous miRNA” value [3] was “highest levels of apoptosis”.

CC(C)C[C@H](NC(=O)[C@H](Cc1ccccc1)NC(=O)c1cnccn1)B(O)O [Velcade] was tested, and the “Effect of the added anticancer agent on apoptotic activity of 17-AAG” value [4] was “strongly inhibited”.

For “miR-145: miRNA GUCCAGUUUUCCCAGGAAUCCCUU (SEQ ID NO:1) (listed as RNA, chemistry not given here; listed as Homo sapiens)”, the “Synergy with 17-AAG in apoptotic reading” value [1] was “synergized” and the “Class of activity in synergy with 17-AAG” value [2] was “low activity”.

For “miR-520c: miRNA AAAGUGCUUCCUUUUAGAGGGUU (SEQ ID NO:4) (listed as RNA, chemistry not given here; listed as Homo sapiens)”, the “Synergy with 17-AAG in apoptotic reading” value [1] was “synergized”, the “Class of activity in synergy with 17-AAG” value [2] was “high activity” and the “Level of apoptosis in oxaliplatin treated cells expressing exogenous miRNA” value [3] was “highest level of apoptosis”.

“mir 425-3p: miRNA AUCGGGAAUGUCGUGUCCGCC (SEQ ID NO:6) (AUCGGGAAUGUCGUGUCCGCCC; listed as RNA, chemistry not given here; listed as Homo sapiens)” was tested, and the “Level of apoptosis in paclitaxel treated cells expressing exogenous miRNA” value [3] was “highest levels of apoptosis”.

With “mir 495: miRNA AAACAAACAUGGUGCACUUCUUU (SEQ ID NO:7) (listed as RNA, chemistry not given here; listed as Homo sapiens)” the “Level of apoptosis in paclitaxel treated cells expressing exogenous miRNA” value [3] was “highest levels of apoptosis”.

In the case of C=CCNC1=C2C[C@@H](C)C[C@H](OC)[C@H](O)[C@@H](C)/C=C(\C)[C@H](OC(N)=O)[C@@H](OC)/C=C\C=C(/C)C(=O)NC(=CC1=O)C2=O [17-AAG, 17-(Allylamino)-17-demethoxygeldanamycin], the IC50 [5] is reported as ~32 nM, the “Her2 protein expression and localization after treatment” value [6] is reported as “eliminated from its cell surface sub-localization to cytoplasm” and the “EC50 of apoptosis induction” value [7] is reported as 0.07 µg/mL. The EC50 ([7]; read-out: EC50 of apoptosis induction) was 120 nM.

In the case of “mir 661: miRNA UGCCUGGGUCUCUGGCCUGCGCGU (SEQ ID NO:9) (listed as RNA, chemistry not given here; listed as Homo sapiens)”, the “Level of apoptosis in paclitaxel treated cells expressing exogenous miRNA” value [3] is reported as “highest levels of apoptosis”.

For “miR-454-3p: miRNA UAGUGCAAUAUUGCUUAUAGGGUUU (SEQ ID NO:2) (listed as RNA, chemistry not given here; listed as Homo sapiens)”, the “Synergy with 17-AAG in apoptotic reading” value [1] was “synergized”, the “Class of activity in synergy with 17-AAG” value [2] was “high activity” and the “Level of apoptosis in oxaliplatin treated cells expressing exogenous miRNA” value [3] was “highest level of apoptosis”.
